{"source": "BindingDB's records for doi:10.1021/jm500588w", "about": "(Sanofi R & D, 2014)", "data": [{"assay": "Antagonist activity at P2Y12 receptor in human platelet rich plasma assessed as inhibition of ADP-induced aggregation", "units": {"IC50": "nM"}, "values": [{"smiles": "CCCC(=O)c1cnn(-c2ccc(NC(=O)c3cn(CC(=O)N4CCN(C)CC4)c4ccc(OC)cc34)cc2)c1C", "IC50": 400}, {"smiles": "CCCC(=O)c1cnn(-c2ccc(NC(=O)c3cn(CC(=O)N4CCN(C)CC4)c4ccc(Cl)cc34)cc2)c1C", "IC50": 500}, {"smiles": "CCCC(=O)c1cnn(-c2ccc(NC(=O)c3cn(CC(=O)N4CCN(C)CC4)c4cc(F)c(Cl)cc34)cc2)c1C", "IC50": 500}, {"smiles": "CCCC(=O)c1cnn(-c2ccc(NC(=O)c3cn(CC(=O)N4CCN(C)CC4)c4cc(C)c(Br)cc34)cc2)c1C", "IC50": 1100}, {"smiles": "CCCC(=O)c1cnn(-c2ccc(NC(=O)c3cn(CC(=O)N4CCN(C)CC4)c4ccc(C(F)(F)F)cc34)cc2)c1C", "IC50": 700}, {"smiles": "CCCC(=O)c1cnn(-c2ccc(NC(=O)c3cn(CC(=O)N4CCN(C)CC4)c4cc(C)c(Cl)cc34)cc2)c1C", "IC50": 500}, {"smiles": "CCCC(=O)c1cnn(-c2ccc(N(C)C(=O)c3cn(CC(=O)O)c4ccc(C)cc34)cc2)c1C", "IC50": "> 30000"}, {"smiles": "CCCC(=O)c1cnn(-c2ccc(NC(=O)c3cn(CC(=O)N4CCN(C)CC4)c4ccc(C)cc34)cc2)c1C", "IC50": 500}, {"smiles": "CCCC(=O)c1cnn(-c2ccc(NC(=O)c3cn(CC(=O)N4CCN(CCOC)CC4)c4ccc(Cl)cc34)cc2)c1C", "IC50": 300}, {"smiles": "CCCC(=O)c1cnn(-c2ccc(NC(=O)c3cn(CC(=O)N4CCN(Cc5cc(C)on5)CC4)c4ccc(Cl)cc34)cc2)c1C", "IC50": 300}, {"smiles": "CCCC(=O)c1cnn(-c2ccc(NC(=O)c3cn(CC(=O)N4CCN5CCN(C)C(=O)C5C4)c4ccc(Cl)cc34)cc2)c1C", "note": "(configuration not stated)", "IC50": 300}, {"smiles": "CCCC(=O)c1cnn(-c2ccc(NC(=O)c3cn(CC(=O)N4CCN(CCO)CC4)c4ccc(Cl)cc34)cc2)c1C", "IC50": 300}, {"smiles": "CCCC(=O)c1cnn(-c2ccc(NC(=O)c3cn(CC(=O)N4CCN(CC(=O)N(C)C)CC4)c4ccc(Cl)cc34)cc2)c1C", "IC50": 400}, {"smiles": "CCCC(=O)c1cnn(-c2ccc(NC(=O)c3cn(CCC(=O)O)c4ccc(C)cc34)cc2)c1C", "IC50": 4000}, {"smiles": "CCCC(=O)c1cnn(-c2ccc(NC(=O)c3cn(CC(=O)O)c4ccc(C)cc34)cc2)c1C", "IC50": 1800}, {"smiles": "CCOC(=O)c1c(C)nn(-c2ccc(C(=O)NCc3ccccc3OC)cc2)c1C", "IC50": 16800}, {"smiles": "CCCC(=O)c1cnn(-c2ccc(NC(=O)c3cn(CC(=O)O)c4ccc(C)c(C)c34)cc2)c1C", "IC50": "> 30000"}, {"smiles": "CCOC(=O)c1c(C)nn(-c2ccc(NC(=O)Nc3ccc(Cl)cc3)cc2)c1C", "IC50": 4500}, {"smiles": "CCCC(=O)c1cnn(-c2ccc(NC(=O)c3cn(CC(=O)O)c4cc(C)c(C)cc34)cc2)c1C", "IC50": 400}, {"smiles": "CCCC(=O)c1cnn(-c2ccc(NC(=O)c3c(C)n(CC(=O)O)c4ccc(C)cc34)cc2)c1C", "IC50": 15000}, {"smiles": "CCCC(=O)c1cnn(-c2ccc(NC(=O)n3cc(CCCC(=O)O)c4ccc(C)cc43)cc2)c1C", "IC50": "> 30000"}, {"smiles": "CCCC(=O)c1cnn(-c2ccc(NC(=O)c3cn(CC(=O)N4CCN(C)CC4)c4cc(C)c(C)cc34)cc2)c1C", "IC50": 500}, {"smiles": "CCCC(=O)c1cnn(-c2ccc(NC(=O)c3cn(CCCC(=O)O)c4ccc(C)cc34)cc2)c1C", "IC50": 20000}, {"smiles": "CCOC(=O)c1c(C)nn(-c2ccc(NC(=O)Nc3ccccc3OCCCC(=O)O)cc2)c1C", "IC50": 13000}, {"smiles": "CCCC(=O)c1cnn(-c2ccc(NC(=O)c3cn(CC(=O)OC)c4ccc(C)cc34)cc2)c1C", "IC50": 4100}, {"smiles": "CCCC(=O)c1cnn(-c2ccc(NC(=O)Nc3cc(C)ccc3OCCCC(=O)O)cc2)c1C", "IC50": "> 30000"}, {"smiles": "CCCC(=O)c1cnn(-c2ccc(NC(=O)c3cn(CC(=O)N(C)C)c4cc(C)c(C)cc34)cc2)c1C", "IC50": 800}]}]}
